Assay results reported in EPA's ToxValDB 9.5 (doi:10.2903/j.efsa.2008.144r).
Values after ≈ are worked out from the molar mass of the structure shown.

Assays:
[1] = test system: Aphidius rhopalosiphi; experiment: LR50; higher = less toxic; conditions: not reported; mortality
[2] = test system: Oncorhynchus mykiss; conditions: chronic/long-term; duration: 94 days
[3] = test system: Oryctolagus sp.; conditions: developmental; development
[4] = test system: Apis mellifera; conditions: acute; duration: 48 hours; oral; unspecified; mortality
[5] = test system: Pleurozium sp.; conditions: acute; duration: 72 hours; biomass
[6] = test system: Rattus norvegicus
[7] = test system: Bibionidae; conditions: chronic/long-term; duration: 20 days
[8] = test system: Zea sp.; conditions: not reported; other
[9] = test system: Daphnia magna; conditions: acute; duration: 48 hours; reproduction
[10] = test system: Lepomis macrochirus; conditions: acute; duration: 96 hours; mortality
[11] = test system: Tagia sp.
[12] = test system: Colinus virginianus

SMILES: CC(Cc1ccc(C(C)(C)C)cc1)CN1C[C@@H](C)O[C@@H](C)C1 (stereo partly drawn) [(2R,6S)-Fenpropimorph]
- LR50 [1]: 25.7 g/ha
- NOEC [2]: 0.00016 mg/L
- NOAEL [3]: 15 mg/kg-day
- LD50 [4]: > 95.6 µg/piece
- NOEC [5]: 0.005 mg/L
- LD50 ([6]; acute, oral, mortality): 2230 mg/kg
- NOAEL ([6]; chronic, duration: 2 years, organ weight): 0.3 mg/kg-day
- NOAEC ([6]; reproduction developmental, duration: 24 months, reproduction): 16 mg/kg-day
- NOAEL ([6]; subchronic, duration: 90 days, oral, clinical chemistry): 0.7 mg/kg-day
- NOEC [7]: 0.13 mg/L
- LEL [8]: 1690 g/ha
- NOEC [9]: 0.024 mg/L
- LC50 [10]: 2.3 µg/mL (≈ 7.58 µM)
- LC50 ([11]; acute, duration: 14 days, mortality): > 1000 mg/kg
- NOEC ([11]; chronic/long-term): 9.92 mg/kg
- LD50 ([12]; acute, oral, mortality): > 2000 mg/kg
- NOEC ([12]; reproduction developmental): > 30.3 mg/kg-day
